Measurements: US9580430B2, “9H-pyrimido[4,5-B]indoles and related analogs as BET bromodomain inhibitors” (THE REGENTS OF THE UNIVERSITY OF MICHIGAN, priority 2014, dated 2017)
Like-named read-outs stand apart in the source and are kept apart here.

Experiments:
[1] = molecular target: T1, recombinant BRD4 BD1 (Homo sapiens, UniProt O60885); assay: Competitive fluorescence-polarization (FP) binding assay, BRD4 BD1; settings: for Ki: read-out: Binding affinities (FP) BRD4BD1 Ki; as to IC50 (nM) BRD4 BD1: probe 1.5 nM
T1 construct: for recombinant BRD4 BD1 and BRD4 BD2 proteins
Description: (§1) Fluorescence Polarization (FP) competitive binding studies were carried out using a FAM labeled fluorescent probe (ZBA248 or BRD-1F) to determine binding affinities of representative Compounds of the Disclosure for recombinant BRD4 BD1 and BRD4 BD2 proteins. For example, equilibrium dissociation constants (Kd) values of ZBA248 to these […] proteins were determined from protein saturation experiments by monitoring the total fluorescence polarization of mixtures composed with the fluorescent probe at a fixed concentration and proteins with increasing concentrations up to full saturation. Serial dilutions of testing protein were mixed with ZBA248 to a final volume of 200 μl in the assay buffer. […] Plates were incubated at room temperature for 30 minutes with gentle shaking to assure equilibrium. […] Kd values of ZBA248 were calculated by fitting the sigmoidal dose-dependent FP increases as a function of protein concentrations using Graphpad Prism 6.0 software (Graphpad Software, San Diego, Calif.).
(§2) The IC50 and Ki values of representative Compounds of the Disclosure were determined in a competitive binding experiment as described above. Mixtures of 10 μl of the tested compounds in assay buffer with 40% Ethylene Glycol and 190 μl of preincubated protein/probe complex solution in the assay buffer (100 mM potassium phosphate, pH 6.5, 0.01% Triton X-100) were added into assay plates which were incubated at room temperature for 30 minutes with gentle shaking. Final concentrations of proteins were 10 and 6 nM in assays for BD1 and BD2 of BRD4, respectively. […] FP values were measured as described above. IC50 values were determined by nonlinear regression fitting of the competition curves.

[2] = molecular target: T2, recombinant BRD4 BD2 (Homo sapiens, UniProt O60885); assay: Competitive fluorescence-polarization (FP) binding assay, BRD4 BD2; settings: for Ki: read-out: Binding affinities (FP) BRD4BD2 Ki; as to IC50 (nM) BRD4 BD2: probe 1.5 nM
T2 construct: for recombinant BRD4 BD1 and BRD4 BD2 proteins
Description: as §1, §2

[3] = competitive FP assay, protein 10 nM, probe […], read-out: IC50 (nM) BRD4 BD1
[4] = competitive FP assay, protein 6 nM, probe […], read-out: IC50 (nM) BRD4 BD2
[5] = FP competitive binding, BRD4 BD1, read-out: Binding affinities (FP) BRD4BD1 IC50
[6] = FP competitive binding, BRD4 BD1
[7] = FP competitive binding, BRD4 BD2, read-out: Binding affinities (FP) BRD4BD2 IC50
[8] = FP competitive binding, BRD4 BD2

Structure (SMILES)	IC50 [1, 3]	IC50 [2, 4]	IC50 [1, 5]	Ki [1, 6]	IC50 [2, 7]	Ki [2, 8]
COCc1nc(Nc2cc(C3CC3)nn2C)c2c(n1)[nH]c1cc(-c3c(C)noc3C)c(OC)cc12 [Cpd. No. 207, N-(3-cyclopropyl-1-methyl-1H-pyrazol-5-yl)-7-(3,5-dimethylisoxazol-4-yl)-6-methoxy-2-(methoxymethyl)-9H-pyrimido[4,5-b]indol-4-amine]	2.9 nM	1.3 nM				
COc1cc2c(cc1-c1c(C)noc1C)[nH]c1nc(C)nc(Sc3c[nH]c4ccccc34)c12 [Cpd. No. 26, 4-(4-((1H-indol-3-yl)thio)-6-methoxy-2-methyl-9H-pyrimido[4,5-b]indol-7-yl)-3,5-dimethylisoxazole]	> 1000 nM	> 1000 nM				
COc1cc2c3c(N(C)c4cc(C5CC5)nn4C4CN(C)C4)nc(C)nc3n(C)c2cc1-c1c(C)noc1C [compound 258, N-(3-Cyclopropyl-1-(1-methylazetidin-3-yl)-1H-pyrazol-5-yl)-7-(3,5-dimethyl-isoxazol-4-yl)-6-methoxy-N,2,9-trimethyl-9H-pyrimido[4,5-b]indol-4-amine]	8.1 nM	2.8 nM				
COc1cc2c(cc1-c1c(C)noc1C)[nH]c1nc(C)nc(Sc3cccc(C(C)(C)C)c3)c12 [Cpd. No. 27, 4-(4-((3-(tert-butyl)phenyl)thio)-6-methoxy-2-methyl-9H-pyrimido[4,5-b]indol-7-yl)-3,5-dimethylisoxazole]	> 1000 nM	> 1000 nM				
COc1cc2c(cc1-c1c(C)noc1C)[nH]c1nc(C)nc(Nc3cc(C4CC4)nn3CCN(C)C)c12 [Cpd. No. 160, N-(3-Cyclopropyl-1-(2-(dimethylamino)ethyl)-1H-pyrazol-5-yl)-7-(3,5-dimethylisoxazol-4-yl)-6-methoxy-2-methyl-9H-pyrimido[4,5-b]indol-4-amine]	14.1 nM					
COc1cc2c(nc1-c1c(C)noc1C)[nH]c1nc(C)nc(Nc3cc(C4CC4)nn3C)c12 [Cpd. No. 304]			63 nM	15 nM	318 nM	94 nM
CCn1nc(C2CC2)cc1Nc1nccc2[nH]c3cc(-c4c(C)noc4C)c(OC)cc3c12 [Cpd. No. 285, N-(3-cyclopropyl-1-ethyl-1H-pyrazol-5-yl)-7-(3,5-dimethylisoxazol-4-yl)-8-methoxy-5H-pyrido[4,3-b]indol-1-amine]			18.9 nM	3.7 nM	9.8 nM	2.1 nM
COc1cc2c(cc1-c1c(C)noc1C)[nH]c1nc(C)nc(Sc3ccccc3C(C)C)c12 [Cpd. No. 25, 4-(4-((2-isopropylphenyl)thio)-6-methoxy-2-methyl-9H-pyrimido[4,5-b]indol-7-yl)-3,5-dimethylisoxazole]	> 1000 nM	> 1000 nM				
COc1cc2c(cc1-c1c(C)noc1C)[nH]c1ccnc(Nc3c4c(nn3C(C)C)CCC4)c12 [Cpd. No. 286, 7-(3,5-dimethylisoxazol-4-yl)-N-(2-isopropyl-2,4,5,6-tetrahydrocyclopenta[c]pyrazol-3-yl)-8-methoxy-5H-pyrido[4,3-b]indol-1-amine]			28.7 nM	5.1 nM	18.5 nM	4.6 nM
COc1cc2c(cc1-c1c(C)noc1C)[nH]c1nc(N)nc(Nc3cc(C4CC4)nn3C)c12 [Cpd. No. 206, N4-(3-cyclopropyl-1-methyl-1H-pyrazol-5-yl)-7-(3,5-dimethylisoxazol-4-yl)-6-methoxy-9H-pyrimido[4,5-b]indole-2,4-diamine]	5.6 nM					
COc1cc2c(cc1-c1c(C)noc1C)[nH]c1nc(C)nc(Nc3ccnc(C)c3)c12 [Cpd. No. 248, 7-(3,5-dimethylisoxazol-4-yl)-6-methoxy-2-methyl-N-(2-methylpyridin-4-yl)-9H-pyrimido[4,5-b]indol-4-amine]	70 nM	79 nM				
COc1cc2c(cc1-c1c(C)noc1C)[nH]c1nc(C)nc(Nc3cc(C4CC4)nn3C3CNC3)c12 [Cpd. No. 163, N-(1-(Azetidin-3-yl)-3-cyclopropyl-1H-pyrazol-5-yl)-7-(3,5-dimethylisoxazol-4-yl)-6-methoxy-2-methyl-9H-pyrimido[4,5-b]indol-4-amine]	8.8 nM					
